For one assay, the system named is HT-29. The experiment in a line: Inhibitory concentration value against human colon adenocarcinoma HT-29 tumor cell line. The assay is classed as functional, cell-based.
Another assay deals with SK-MEL-28. Put plainly: Inhibitory concentration value against human MEL-28 tumor cell line. Format: functional, cell-based.
The next assay deals with P388. Put plainly: Inhibitory concentration value against murine P-388 tumor cell line. Conditions: Mus musculus. The assay is classed as functional, cell-based.
Assay [1] can be described thus: Inhibitory concentration value against human MEL-28 or human cancer HeLa tumor cell line. The assay is classed as functional, cell-based.
Another assay deals with A549. The experiment in a line: Inhibitory concentration value against human A-549 tumor cell line. Format: functional, cell-based.
Another assay relates to HL-60. Put plainly: Inhibitory concentration value against human colon carcinoma H-116 or human cancer HL-60 tumor cell line. Format: functional, cell-based.
A further assay has as its system HCT-116. The experiment in a line: Inhibitory concentration value against human colon carcinoma H-116 tumor cell line. The assay is classed as functional, cell-based.
The target in another assay is Tubulin beta chain (Bos taurus, UniProt Q6B856). Put plainly: In vitro inhibitory concentration value against bovine brain tubulin polymerization.
Chain of Tubulin beta chain (Q6B856 whole entry): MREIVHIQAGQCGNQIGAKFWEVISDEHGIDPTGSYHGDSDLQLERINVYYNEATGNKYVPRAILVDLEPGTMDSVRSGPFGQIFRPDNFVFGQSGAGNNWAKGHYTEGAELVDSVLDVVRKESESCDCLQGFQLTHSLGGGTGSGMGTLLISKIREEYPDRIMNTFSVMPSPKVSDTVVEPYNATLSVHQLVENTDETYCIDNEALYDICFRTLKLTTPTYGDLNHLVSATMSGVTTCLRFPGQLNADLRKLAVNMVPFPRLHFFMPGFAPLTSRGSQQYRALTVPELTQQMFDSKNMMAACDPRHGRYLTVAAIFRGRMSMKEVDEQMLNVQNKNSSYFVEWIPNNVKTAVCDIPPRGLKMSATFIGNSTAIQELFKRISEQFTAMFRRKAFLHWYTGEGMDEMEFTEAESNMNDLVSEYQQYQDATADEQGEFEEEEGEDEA

As a reminder, the IC50 is the concentration that inhibits the measured activity by half. High values mean lower potency, low ones higher potency.

Consider `COc1ccc(/C=C\c2cc(OC)c3ccccc3c2)cc1O`, for which the IC50 was found to be 3620 nM with HT-29; 40 nM in the assay on SK-MEL-28; 40 nM in the assay on P388; 40 nM in assay [1]; 40 nM in the assay with A549; 3620 nM in the assay on HL-60. Also, the values for the IC50 in the assay on HCT-116 and against Tubulin beta chain were 40 nM and 16000 nM, respectively.

As for `COc1cc(/C=C/c2ccc3ccccc3c2)cc(N)c1OC`, the IC50 with HT-29 is 6000 nM; in assay [1], 460 nM; in the assay on A549 it was 2150 nM; in the assay with HL-60 it was 3150 nM; against Tubulin beta chain, more than 40000 nM.

Consider `COc1cc(/C=C\c2ccc3ccccc3c2)cc([N+](=O)[O-])c1OC`, for which the IC50 in the assay with HT-29 is 420 nM; in assay [1], 110 nM; with A549, 590 nM; in the assay with HL-60, 340 nM; at Tubulin beta chain it was 13000 nM.

With `COc1cc(/C=C/c2ccc3ccccc3c2)cc([N+](=O)[O-])c1OC`, the 50% inhibitory concentration (IC50) in the assay on HT-29 is more than 10000 nM; in assay [1] it was 3200 nM; in the assay on A549, more than 10000 nM; in the assay on HL-60, more than 10000 nM; on Tubulin beta chain, more than 40000 nM.

Consider `COc1cc(/C=C/c2ccc3c(c2)c2ccccc2n3C)cc(OC)c1OC`, for which the IC50 was 450 nM in the assay on HT-29; 330 nM in assay [1]; 530 nM in the assay with A549; 340 nM in the assay with HL-60; more than 30000 nM against Tubulin beta chain.

In the case of `COc1ccc(/C=C\c2ccc3ccccc3c2)cc1O`, the IC50 with HT-29 worked out at 32 nM; in the assay with SK-MEL-28, 3 nM; in the assay with P388, 3 nM; in assay [1], 3 nM; in the assay with A549 it was 3 nM; in the assay on HL-60, 16 nM. Besides, the results for the concentration for half-maximal inhibition (IC50) in the assay on HCT-116 and at Tubulin beta chain were 16 nM and 3000 nM, respectively.

As to `COc1cc(/C=C\c2ccc3ccccc3c2)cc(OC)c1OC` [NAPHTHYLCOMBRETASTATIN], the 50% inhibitory concentration (IC50) is 20 nM in the assay on SK-MEL-28; 20 nM in the assay with P388; 20 nM in assay [1]; more than 5000 nM in the assay with HL-60; 20 nM in the assay on HCT-116; 10000 nM on Tubulin beta chain.
